Assay results published in publication PMC7966987, “Insights into the catalytic properties of the mitochondrial rhomboid protease PARL” (The Journal of Biological Chemistry, 2021).
Read-outs that look alike come from different tables or passages of the source. Residues, ends and D or L forms follow the SMILES beside them.

Key:
[1] = target: T1, PARLΔ77 (Homo sapiens, UniProt Q9H300); assay: Inhibition by commercial serine protease inhibitors, PARLΔ77 in detergent; format: biochemical; details: 100 μM inhibitor, IQ-PINK1 and IQ-PGAM5 substrates, N=3
T1 construct: GFP-hexahistidine (behind a TEV cleavage site) (C, cleaved yes); made in house; host or cells: Pichia pastoris
T1 sequence (Q9H300 78-379): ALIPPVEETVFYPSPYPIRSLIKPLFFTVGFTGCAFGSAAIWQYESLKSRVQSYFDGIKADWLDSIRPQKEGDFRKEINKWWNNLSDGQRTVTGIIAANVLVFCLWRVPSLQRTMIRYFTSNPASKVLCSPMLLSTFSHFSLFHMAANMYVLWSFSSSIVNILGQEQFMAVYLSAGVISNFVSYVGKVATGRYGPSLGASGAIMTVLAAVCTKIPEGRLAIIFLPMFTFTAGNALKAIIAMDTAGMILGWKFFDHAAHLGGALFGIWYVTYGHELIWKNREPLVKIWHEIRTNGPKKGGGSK
Description: We examined whether inhibitors belonging to three standard serine protease inhibitors families—sulfonyl fluoride (PMSF), chloromethyl ketone (TPCK), and coumarin (DCI)—were able to inhibit PARL when tested with IQ-PINK1 and IQ-PGAM5 substrates. […] Overall this supports the view that for PARL, specific inhibitors will need to be developed similar to bacterial rhomboid proteases ([48], [49]). […]
(§1) inhibitors. Bar graphs for percent activity of detergent solubilized (A) and proteoliposome reconstituted (B) PA R L Δ77with100µMofinhibitoradded prior to the addition of IQ-PINK1 and IQ-PGAM5 substrates. Experiments were conducted in duplicate with an N=3.
(§2) Individual data points (black dots) are indicated on the bar graphs, representing the mean […]

[2] = target: T1, PARLΔ77; assay: Inhibition by commercial serine protease inhibitors, PARLΔ77 in proteoliposomes; format: biochemical; details: 100 μM inhibitor, in PL, IQ-PINK1 and IQ-PGAM5 substrates, N=3
Method: We examined whether inhibitors belonging to three standard serine protease inhibitors families—sulfonyl fluoride (PMSF), chloromethyl ketone (TPCK), and coumarin (DCI)—were able to inhibit PARL when tested with IQ-PINK1 and IQ-PGAM5 substrates. […] Overall this supports the view that for PARL, specific inhibitors will need to be developed similar to bacterial rhomboid proteases ([48], [49]).
The activity assay with PARL reconstituted in PL was performed the same way as for PARL in DDM with the only difference being the activity buffer, where DDM was omitted (50 mM Tris-HCl pH 7.0, 150 mM NaCl, 10% glycerol). For inhibitory studies, PARL in PL (0.8 μM) was incubated with inhibitors (20 μM) in activity buffer for 30 min, and then the proteolytic reaction was started with the addition of substrate (5 μM). […]
as §1, §2

[3] = system: Rhomboid-1; details: cited from earlier work
Description: (§3) Rhomboids were initially discovered to be serine proteases because the first identified rhomboid protease from Drosophila, Rhomboid-1, was sensitive to serine protease inhibitors dichloroisocoumarin (DCI) and tosyl phenylalanyl chloromethylketone (TPCK) ([44]).

[4] = target: T1, PARLΔ77; assay: Competition assay, IQ-PGAM5(20-29) cleavage in presence of PINK1(89-111); format: biochemical; details: read-out: Ki (Kd represented by Ki of the PARL-PINK1(89-111) complex)
Description: (§4) To determine if substrates bind to the same site, we performed competition binding assays using fluorescent IQ-PGAM5^20–29 and IQ-Smac/Diablo^51–60 as the main substrates and nonfluorescent PINK1^89–111 (^89[…]^111) as a competing substrate (Fig. 4). The longer version of substrate was used in this assay in order to reveal possible exosite interactions of substrate with PARL, assuming that regions surrounding the cleavage site might be involved in a primary substrate binding with a putative exosite.
(§5) Fluorescence detection of each substrate concentration in the presence of corresponding PINK189-111 without enzyme was used as a negative control. Initial velocities were determined for each substrate concentration. Michaelis–Menten plots were subjected to global fit to distinguish the kinetic model and determine the kinetic parameters. Values are represented as mean ± SEM (N = 3). […] The only names printed in the panels are the substrates on the x-axis, and KM and kcat are assigned to them.
(§6) The Michaelis–Menten curves of PARL-mediated cleavage of IQ-PGAM5^20–29 and IQ-Smac/Diablo^51–60 were obtained in the presence of different concentrations of PINK1^89–111.

[5] = target: T1, PARLΔ77; assay: Competition assay, IQ-Smac/Diablo(51-60) cleavage in presence of PINK1(89-111); format: biochemical; details: read-out: Ki (Kd represented by Ki of the PARL-PINK1(89-111) complex)
Description: as §4, §5, §6

[6] = system: bacterial rhomboid proteases; details: cited from earlier work
Description: as §3

[7] = target: T1, PARLΔ77; assay: Lipid effect on PARLΔ77 cleavage of FRET-PINK1(70-134); format: biochemical; details: vs no lipid, N = 4
Description: Lipids are known to influence membrane protein function ([29]). In mitochondria, for example, increased CL amounts are observed during mitochondrial stress, which influences protein function at the molecular level ([30]). Therefore, we assessed the effect of the three primary lipids present in the IMM, namely CL, phosphatidylcholine (POPC), and phosphatidylethanolamine (POPE) on PARLΔ77 activity with the FRET-PINK^70–134 substrate (Fig. 1D) ([31]). The lipid-free conditions were used as a baseline and consisted of PARLΔ77 reconstituted in detergent (DDM) micelles, while all lipid conditions consisted of a mixed detergent-lipid micelle system. First we assess the effect of different classes of lipids. […] In order to precisely determine the optimal concentration of CL for PARL activity, the initial velocities of PARL-mediated cleavage of FRET-PINK1^70–134 were measured in the presence of increasing concentrations of CL. […] Therefore, CL was included in all subsequent protein preparations of detergent-solubilized PARL at the last purification step.
Figure S5. The dependence of PA R LΔ77activity on CL concentration. The initial velocities of PA R LΔ77weremeasuredin the presence of different molar ratios of CL using FRET-PINK170-134 substrate. One-way ANOVA with multiple comparisons was performed between the no-lipid condition and each molar ratio of CL:protein to determine if differences observed were significant. A total of five experimental replicates performed in duplicate were used for data analysis (N = 5). Individual data points (black dots) are indicated on the bar graphs, representing the mean ±SEM
(1 picture or pasted object on this page, not shown here)

[8] = system: preferred substrates; details: cited from earlier work
Method: The bacterial rhomboid proteases from Haemophilus influenzae (HiGlpG) and P. stuartii (AarA) cleave at a rate of roughly two per minute for their preferred substrates in DDM, while the E. coli rhomboid protease GlpG cleaves slowly in DDM, much like PARL, at a rate of approximately six per hour and with a rate of 2.5 min^−1 in PLs ([26], [34], [35]).

[9] = target: PARLΔ77 (β-cleavage form of human PARL) (human) (UniProt Q9H300); assay: competitive inhibition of FRET peptide cleavage (enzyme kinetics); PARLΔ77 0.8 μM; IQ-PGAM5 20-29 (0.13-19 μM) as main substrate; nonfluorescent PINK1 89-111 at 2.5, 5, 10, 20 μM; Michaelis–Menten plots fitted globally, competitive model; Kd represented by Ki
[10] = target: PARLΔ77 (β-cleavage form of human PARL) (human) (UniProt Q9H300); assay: competitive inhibition of FRET peptide cleavage (enzyme kinetics); PARLΔ77 0.8 μM; IQ-Smac/Diablo 51-60 (0.3–25 μM) as main substrate; nonfluorescent PINK1 89-111 at 2.5, 5, 10, 20 μM; Michaelis–Menten plots fitted globally, competitive model; Kd represented by Ki
[11] = lipid at molar ratio 50:1, mixed detergent (DDM)-lipid micelles

PARLΔ77 (β-cleavage form of human PARL) (human), sequence (Q9H300 77-379, stated change not applied): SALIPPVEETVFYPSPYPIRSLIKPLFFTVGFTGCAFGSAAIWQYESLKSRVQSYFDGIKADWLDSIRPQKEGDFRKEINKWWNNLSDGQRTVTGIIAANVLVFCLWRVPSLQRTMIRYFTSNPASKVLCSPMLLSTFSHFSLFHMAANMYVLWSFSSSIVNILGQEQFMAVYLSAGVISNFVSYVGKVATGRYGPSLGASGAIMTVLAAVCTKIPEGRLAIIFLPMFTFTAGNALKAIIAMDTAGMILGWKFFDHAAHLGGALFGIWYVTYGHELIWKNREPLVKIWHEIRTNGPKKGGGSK

O=c1oc(Cl)c(Cl)c2ccccc12 [DCI, dichloroisocoumarin]
inhibition of PARL activity [1]: largest inhibitory effect | inhibition of PARL activity [2]: largest inhibitory effect | inhibition of Drosophila Rhomboid-1 [3]: sensitive

CC[C@H](C)[C@H](NC(=O)[C@H](CC(C)C)NC(=O)CNC(=O)[C@H](CC(C)C)NC(=O)CNC(=O)[C@H](CC(C)C)NC(=O)CNC(=O)[C@H](Cc1ccccc1)NC(=O)[C@H](C)NC(=O)[C@H](CC(C)C)NC(=O)[C@H](Cc1ccccc1)NC(=O)[C@@H](NC(=O)[C@H](C)NC(=O)[C@H](CCCNC(=N)N)NC(=O)CNC(=O)[C@H](CS)NC(=O)[C@@H]1CCCN1C(=O)CNC(=O)[C@H](C)NC(=O)[C@H](CS)NC(=O)CNC(=O)[C@H](Cc1c[nH]c2ccccc12)NC(=O)[C@H](C)NC(=O)[C@H](CO)NC(=O)CN)C(C)C)C(=O)O [PINK1^89–111] (H-GSAWGCAGPCGRAVFLAFGLGLGLI-OH)
Ki [4]: 2.4 ± 0.6 µM | Ki [5]: 2.3 ± 0.7 µM

O=S(=O)(F)Cc1ccccc1 [PMSF]
inhibition of PARL activity [1]: not inhibited | inhibition of PARL activity [2]: not inhibited | inhibition of bacterial rhomboid proteases [6]: does not act on bacterial rhomboid proteases

Cc1ccc(S(=O)(=O)N[C@@H](Cc2ccccc2)C(=O)CCl)cc1 [TPCK, tosyl phenylalanyl chloromethylketone]
inhibition of PARL activity [1]: partially inhibits | inhibition of PARL activity [2]: partially inhibits | inhibition of Drosophila Rhomboid-1 [3]: sensitive

cardiolipin [CL]
effect on PARL activity [7, 11]: significant increase in PARL activity

phosphatidylethanolamine [POPE]
effect on PARL activity [7, 11]: did not significantly increase PARL activity | effect on PARL activity ([7]; lipid at molar ratio 100:1, mixed detergent (DDM)-lipid micelles): did not significantly increase PARL activity

B1: GlpG: E. coli rhomboid protease (protein, UniProt P09391 1-276, looked up)
Rhomboid protease GlpG: MLMITSFANPRVAQAFVDYMATQGVILTIQQHNQSDVWLADESQAERVRAELARFLENPADPRYLAASWQAGHTGSGLHYRRYPFFAALRERAGPVTWVMMIACVVVFIAMQILGDQEVMLWLAWPFDPTLKFEFWRYFTHALMHFSLMHILFNLLWWWYLGGAVEKRLGSGKLIVITLISALLSGYVQQKFSGPWFGGLSGVVYALMGYVWLRGERDPQSGIYLQRGLIIFALIWIVAGWFDLFGMSMANGAHIAGLAVGLAMAFVDSLNARKRK
cleavage rate ([8]; in DDM): approximately six | cleavage rate ([8]; in PLs): 2.5 min⁻¹

B2: PINK1 TM domain (amino acids 89–111), nonfluorescent (peptide)
peptide: AWGCAGPCGRAVFLAFGLGLGLI
Ki [9]: 2.4 µM | Ki [10]: 2.3 µM
